The assay addresses Envelope glycoprotein gp160 (Human immunodeficiency virus 1, UniProt Q6QLK5). Description: cell-free HIV fusion peptide-binding blockers – biochemical, uHTS, fluorescence dequenching, […] (AID 1986).

Active and inactive are the calls of the source. Rule as the data show it: actives have a measured IC50 and inactives only a lower limit.

Envelope glycoprotein gp160, sequence (Q6QLK5 whole entry, the tested form may be a part): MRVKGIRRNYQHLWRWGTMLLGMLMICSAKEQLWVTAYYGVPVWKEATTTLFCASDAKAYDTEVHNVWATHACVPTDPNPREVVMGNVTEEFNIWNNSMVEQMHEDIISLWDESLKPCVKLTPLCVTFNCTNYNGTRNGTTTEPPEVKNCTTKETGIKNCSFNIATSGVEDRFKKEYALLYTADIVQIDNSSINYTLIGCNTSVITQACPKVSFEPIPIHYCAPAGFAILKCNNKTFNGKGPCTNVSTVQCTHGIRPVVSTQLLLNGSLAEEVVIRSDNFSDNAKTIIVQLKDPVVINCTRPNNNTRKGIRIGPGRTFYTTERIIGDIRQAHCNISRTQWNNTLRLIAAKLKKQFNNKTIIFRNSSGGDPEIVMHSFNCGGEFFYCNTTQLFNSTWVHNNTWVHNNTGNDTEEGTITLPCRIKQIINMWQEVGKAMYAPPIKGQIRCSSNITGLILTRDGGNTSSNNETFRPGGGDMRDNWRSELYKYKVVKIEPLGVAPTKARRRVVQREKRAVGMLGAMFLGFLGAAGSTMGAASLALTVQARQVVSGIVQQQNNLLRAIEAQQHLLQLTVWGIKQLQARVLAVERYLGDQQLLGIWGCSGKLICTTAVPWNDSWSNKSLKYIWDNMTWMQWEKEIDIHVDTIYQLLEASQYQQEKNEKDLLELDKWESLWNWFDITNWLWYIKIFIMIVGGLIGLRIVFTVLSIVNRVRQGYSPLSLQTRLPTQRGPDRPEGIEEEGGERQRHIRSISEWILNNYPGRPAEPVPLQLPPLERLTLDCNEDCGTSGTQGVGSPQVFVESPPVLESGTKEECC

In general, IC50 refers to the concentration needed to halve the response being measured. As for `CCOC(=O)C1=C(C)N=c2s/c(=C/c3ccc(OCC(=O)O)cc3)c(=O)n2C1c1ccc(SC)cc1` (configuration not stated), the IC50 is 12.7 µM (active).
For the compound `C=CCOC(=O)C1=C(C)N=c2s/c(=C3\C(=O)N(CC(=O)O)c4ccccc43)c(=O)n2C1c1ccc(OC)cc1` (configuration not stated), the IC50 is 18 µM (active).

(Values after ChEMBL document CHEMBL1201862, “PubChem BioAssay data set” (2004).)
